As a reminder, the IC50 is the midpoint of a concentration-inhibition curve.

Where two headings read alike, the source gives them in different places.

IC50 data for 16 compounds are collected here from patent publication US20240025919A1, “AZA-TETRACYCLIC OXAZEPINE COMPOUNDS AND USES THEREOF” (Genentech, Inc., priority 2022, published 2024).

Assay [1] concerns the target KRAS G12D (Homo sapiens (Human), UniProt P01116, G12D). Nature of the assay: KRAS G12D LoEnz Biochemical Assay, BODIPY-GDP Exchange TR-FRET (SOS1-mediated nucleotide exchange). The conditions noted are these: read-out: KRas (G12D) GDP HTRF IC50. Here is the method: Example 500: KRAS G12D LoEnz Biochemical Assay, BODIPY-GDP Exchange TR-FRET. Biochemical compound potencies are assessed by evaluating inhibition of SOS1I-mediated nucleotide exchange in KRAS G121D. In this assay, the SOS1-promoted exchange of fluorescently-labeled GDP (BOPIDY-GDP) is monitored by time-resolved fluorescence resonance energy transfer (TR-FRET). Compounds solubilized in DMS0 are dispensed as concentration series into 384-well white assay plates. A preformed complex of biotin-tagged recombinant human KRAS (0.06 nM mutant G1 2D) and 0.06 nM terbium-labeled streptavidin (CisBIO) prepared in 10 uL/well assay buffer (20 mM HEPES, pH 7.5, 50 mM NaCl, 10 mMMMgCl2, 0.0100 Tween-20 and 1 mM dithiothreitol) is added and allowed to incubate for 10-minutes at room temperature. The reaction is initiated with the addition of 5 uL 300 nM recombinant human SOS1 and 300 nM BODIPY-GDP in assay buffer. After a 120-minute incubation, the fluorescence is measured with excitation at 337 nm and emission at 490 and 520 nm. The TR-FRET ratio is determined as the fluorescence at 520 nm divided by the fluorescence at 490 nm multiplied by 10,000. The results are normalized to percent inhibition based on control samples: DMSO (0% inhibition) and control compound at a concentration that inhibits completely (100% inhibition). The normalized TR-FRET results are plotted against compound concentration, and the data are fit to a 4-parameter Hill equation to determine the IC50 values.
On the technique in general: In TR-FRET formats the signal depends on donor and acceptor labels being close together.

Assay [2] has as its target KRAS WT (Homo sapiens (Human), UniProt P01116). As to the kind of experiment: KRAS WT Biochemical Assay, BODIPY-GDP Exchange TR-FRET (Example 501; 3 nM KRAS WT, 3 nM SOS1, 60-minute incubation). Here is the method:
Example 501: KRAS WT Biochemical Assay, BODIPY-GDP Exchange TR-FRET. Biochemical compound potencies are assessed by evaluating inhibition of SOS1-mediated nucleotide exchange in KRAS WT. In this assay, the SOS1-promoted exchange of fluorescently-labeled GDP (BOPIDY-GDP) is monitored by time-resolved fluorescence resonance energy transfer (TR-FRET). Compounds solubilized in DMSO are dispensed as concentration series into 384-well white assay plates, and 5 uL assay buffer (20 mM HEPES, pH 7.5, 50 mM NaCl, 10 mM MgCl2, 0.01% Tween-20 and 1 mM dithiothreitol) is added just prior to the start of the assay. A preformed complex of 3 nM biotin-tagged recombinant human KRAS WT and 0.3 nM terbium-labeled streptavidin (CisBIO) prepared in 5 uL/well assay buffer is added and allowed to incubate for 10-minutes at room temperature. The reaction is initiated with the addition of 5 uL 3 nM recombinant human SOS1 and 300 nM BODIPY-GDP in assay buffer. After a 60-minute incubation, the fluorescence is measured with excitation at 337 nm and emission at 490 and 520 nm. The TR-FRET ratio is determined as the fluorescence at 520 nm divided by the fluorescence at 490 nm multiplied by 10,000. The results are normalized to percent inhibition based on control samples: DMSO (0% inhibition) and control compound at a concentration that inhibits completely (100% inhibition). The normalized TR-FRET results are plotted against compound concentration, and the data are fit to a 4-parameter Hill equation to determine the IC50 values.

Setting [3] is: read-out: KRas(wt) GDP HTRF IC50.

Sequence of KRAS WT (P01116-2 other isoform, or with tags, fused parts or gaps): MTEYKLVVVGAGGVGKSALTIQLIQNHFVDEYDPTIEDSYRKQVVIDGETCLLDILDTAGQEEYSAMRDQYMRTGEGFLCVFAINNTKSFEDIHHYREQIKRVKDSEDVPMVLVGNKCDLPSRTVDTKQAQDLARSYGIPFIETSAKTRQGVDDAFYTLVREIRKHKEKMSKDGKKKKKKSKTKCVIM
Sequence of KRAS G12D (P01116-2 other isoform, or with tags, fused parts or gaps G12D): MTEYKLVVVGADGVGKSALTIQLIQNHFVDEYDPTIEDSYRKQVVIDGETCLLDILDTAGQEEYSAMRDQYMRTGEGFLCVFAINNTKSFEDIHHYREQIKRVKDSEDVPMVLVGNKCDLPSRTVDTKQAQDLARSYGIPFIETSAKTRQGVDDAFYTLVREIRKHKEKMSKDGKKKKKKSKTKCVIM

For the compound `Cc1cc(N)c(F)c(-c2nc3c4c(ncnc4c2Cl)N2C[C@H]4CC[C@H](N4)[C@H]2[C@H](C)O3)c1C(F)(F)F` (atropisomer, axis not shown) [Compound 95, 3-((5S,5aS,6S,9R)-1-chloro-5-methyl-5a,6,7,8,9,10-hexahydro-5H-4-oxa-3,10a,11,13,14-pentaaza-6,9-methanonaphtho[1,8-ab]heptalen-2-yl)-2-fluoro-5-methyl-4-(trifluoromethyl)aniline], in assay [1], the half-inhibitory concentration (IC50) came out at 26.6 nM.

Regarding `Cc1cc(N)c(F)c(-c2nc3c4c(nc(OCC56CCN5CC(F)(F)C6)nc4c2F)N2C[C@H]4CC[C@H](N4)[C@H]2[C@H](C)O3)c1C(F)(F)F` (mixture of isomers) [Compound 33, 3-((5S,5aS,6S,9R)-12-((3,3-Difluoro-1-azabicyclo[3.2.0]heptan-5-yl)methoxy)-1-fluoro-5-methyl-5a,6,7,8,9,10-hexahydro-5H-4-oxa-3,10a,11,13,14-pentaaza-6,9-methanonaphtho[1,8-ab]heptalen-2-yl)-2-fluoro-5-methyl-4-(trifluoromethyl)aniline], the values for the half-maximal inhibitory concentration (IC50) in assay [1] and in assay [2] (setting [3]) were 0.23 nM and 7.53 nM, respectively.

Take `Cc1c(F)c(N)cc(-c2nc3c4c(nc(OCC56CCN5CC(F)(F)C6)nc4c2F)N2C[C@H]4CC[C@H](N4)[C@H]2[C@H](C(F)(F)F)O3)c1C(F)(F)F` (mixture of isomers) [Compound 244, 5-((5R,5aS,6S,9R)-12-((3,3-Difluoro-1-azabicyclo[3.2.0]heptan-5-yl)methoxy)-1-fluoro-5-(trifluoromethyl)-5a,6,7,8,9,10-hexahydro-5H-4-oxa-3,10a,11,13,14-pentaaza-6,9-methanonaphtho[1,8-ab]heptalene-2-yl)-2-fluoro-3-methyl-4-(trifluoromethyl)aniline]: the figures for the IC50 in assay [1] and in assay [2] (read-out: KRas HTRF IC50) were 0.52 nM and 11.9 nM, respectively.

As to `Cc1nc(N)cc(-c2nc3c4c(nc(OCC5(CN6CC7CC(F)(F)C7C6)CC5)nc4c2F)N2C[C@H]4CC[C@H](N4)[C@H]2[C@H](C)O3)c1C(F)(F)F` (mixture of isomers) [Compound 264, 4-((5S,5aS,6S,9R)-12-((1-((6,6-difluoro-3-azabicyclo[3.2.0]heptan-3-yl)methyl)cyclopropyl)methoxy)-1-fluoro-5-methyl-5a,6,7,8,9,10-hexahydro-5H-4-oxa-3,10a,11,13,14-pentaaza-6,9-methanonaphtho[1,8-ab]heptalene-2-yl)-6-methyl-5-(trifluoromethyl)pyridin-2-amine], the half-inhibitory concentration (IC50) in assay [1] was determined as 0.33 nM; in assay [2] (read-out: KRas HTRF IC50), 19.2 nM.

As to `Cc1c(F)c(N)cc(-c2nc3c4c(nc(OC[C@H]5CC[C@@H]6C(=O)N(C)CCN56)nc4c2F)N2C[C@H]4CC[C@H](N4)[C@H]2[C@H](C)O3)c1C(F)(F)F` (relative stereo) [Compound 123, 6-((((5S,5aS,6S,9R)-2-(5-Amino-4-fluoro-3-methyl-2-(trifluoromethyl)phenyl)-1-fluoro-5-methyl-5a,6,7,8,9,10-hexahydro-5H-4-oxa-3,10a,11,13,14-pentaaza-6,9-methanonaphtho[1,8-ab]heptalen-12-yl)oxy)methyl)-2-methylhexahydropyrrolo[1,2-a]pyrazin-1(2H)-one], the 50% inhibitory concentration (IC50) in assay [1] is 0.7 nM.

With `C[C@@H]1Oc2nc(-c3cc(N)cc(F)c3C(F)(F)F)c(F)c3nc(OC[C@H]4CC[C@@H]5COC(C)(C)CN45)nc(c23)N2C[C@H]3CC[C@H](N3)[C@@H]12` (relative stereo) [Compound 125, 3-((5S,5aS,6S,9R)-12-((3,3-dimethylhexahydro-1H-pyrrolo[2,1-c][1,4]oxazin-6-yl)methoxy)-1-fluoro-5-methyl-5a,6,7,8,9,10-hexahydro-5H-4-oxa-3,10a,11,13,14-pentaaza-6,9-methanonaphtho[1,8-ab]heptalen-2-yl)-5-fluoro-4-(trifluoromethyl)aniline], the IC50 in assay [1] was 0.23 nM.

Take `Cc1c(F)c(N)cc(-c2nc3c4c(nc(OC[C@@]56CCCN5C[C@H](F)C6)nc4c2F)N2CCNC[C@H]2[C@H](C)O3)c1C(F)(F)F` (single isomer, unassigned) [235 (isomer 1)]: the IC50 was 65.8 nM in assay [1] and 143 nM in assay [2] (read-out: KRas HTRF IC50).

Regarding `Cc1c(F)c(N)cc(-c2nc3c4c(nc(OC[C@@]56CCCN5C[C@H](F)C6)nc4c2F)N2CCNC[C@H]2C(C)O3)c1C(F)(F)F` (single isomer, unassigned) [235 (isomer 2)], the IC50 in assay [1] was 0.48 nM; in assay [2] (read-out: KRas HTRF IC50) it was 2.63 nM.

For the compound `Cc1c(F)c(N)cc(-c2nc3c4c(nc(OC[C@@]56CCCN5C[C@H](F)C6)nc4c2F)N2C[C@H]4CC[C@H](N4)[C@@H]2[C@H](C)O3)c1C(F)(F)F` (single isomer, unassigned) [237 (isomer 1)], the figures for the IC50 in assay [1] and in assay [2] (read-out: KRas HTRF IC50) were 1910 nM and 1020 nM, respectively.

Take `Cc1nc(N)cc(-c2nc3c4c(nc(OC[C@@]56CCN5CC(F)(F)C6)nc4c2F)N2C[C@H]4CC[C@H](N4)[C@H]2[C@H](C(F)(F)F)O3)c1C(F)(F)F` (single isomer, unassigned) [252 (isomer 1)]: the IC50 in assay [1] was 1.17 nM; in assay [2] (read-out: KRas HTRF IC50), 25 nM.

Regarding `C#Cc1cccc2cc(O)cc(-c3nc4c5c(nc(OC[C@]67CCN6CC(F)(F)C7)nc5c3F)N3C[C@H]5CC[C@H](N5)[C@H]3[C@H](C)O4)c12` (single isomer, unassigned) [Compound 19], the IC50 in assay [1] was 0.08 nM; in assay [2] (setting [3]), 1.83 nM.

On to `C#Cc1cccc2cc(O)cc(-c3nc4c5c(nc(OC[C@@]67CCN6CC(F)(F)C7)nc5c3F)N3C[C@H]5CC[C@H](N5)[C@H]3[C@H](C)O4)c12` (single isomer, unassigned) [Compound 20], for which the IC50 in assay [1] turned out to be 0.12 nM; in assay [2] (setting [3]) it was 6.55 nM.

Consider `Cc1c(Cl)c(N)cc(-c2nc3c4c(nc(OC[C@@]56CCCN5C[C@H](F)C6)nc4c2F)N2C[C@H]4CC[C@H](N4)[C@H]2[C@H](C)O3)c1C(F)(F)F` (single isomer, unassigned) [Compound 200], for which, in assay [1], the IC50 was found to be 0.1 nM.

On to `Cc1cc(N)c(Cl)c(-c2nc3c4c(nc(OC[C@@]56CCCN5C[C@H](F)C6)nc4c2F)N2C[C@H]4CC[C@H](N4)[C@H]2[C@H](C)O3)c1C(F)(F)F` [Compound 199, 2-Chloro-3-((5S,5aS,6S,9R)-1-fluoro-12-(((2R,7aS)-2-fluorotetrahydro-1H-pyrrolizin-7a(5H)-yl)methoxy)-5-methyl-5a,6,7,8,9,10-hexahydro-5H-4-oxa-3,10a,11,13,14-pentaaza-6,9-methanonaphtho[1,8-ab]heptalen-2-yl)-5-methyl-4-(trifluoromethyl)aniline], for which, in assay [1], the IC50 was found to be 0.17 nM.

Regarding `Cc1c(F)c(N)cc(-c2nc3c4c(nc(OC[C@@]56CCCN5C[C@H](F)C6)nc4c2F)N2C[C@H]4CC[C@H](N4)[C@H]2[C@@H](C(F)(F)F)O3)c1C(F)(F)F` [Compound 246, 2-Fluoro-5-((5S,5aS,6S,9R)-1-fluoro-12-(((2R,7aS)-2-fluorotetrahydro-1H-pyrrolizin-7a(5H)-yl)methoxy)-5-(trifluoromethyl)-5a,6,7,8,9,10-hexahydro-5H-oxa-3,10a,11,13,14-pentaaza-6,9-methanonaphtho[1,8-ab]heptalene-2-yl)-3-methyl-4-(trifluoromethyl)aniline], in assay [2] (read-out: KRas HTRF IC50), the IC50 was determined as 1200 nM.

In the case of `Cc1nc(N)cc(-c2nc3c4c(nc(OCC5(CN6CC7COCC(C6)C7(F)F)CC5)nc4c2F)N2C[C@H]4CC[C@H](N4)[C@H]2[C@H](C)O3)c1C(F)(F)F` [Compound 266, 4-((5S,5aS,6S,9R)-12-((1-((9,9-difluoro-3-oxa-7-azabicyclo[3.3.1]nonon-7-yl)methyl)cyclopropyl)methoxy)-1-fluoro-5-methyl-5a,6,7,8,9,10-hexahydro-5H-4-oxa-3,10a,11,13,14-pentaaza-6,9-methanonaphtho[1,8-ab]heptalene-2-yl)-6-methyl-5-(trifluoromethyl)pyridin-2-amine], the IC50 in assay [2] (read-out: KRas HTRF IC50) was 1100 nM.
